Reference: patent publication US20130102631A1, “NOVEL MICROBIOCIDAL DIOXIME ETHER DERIVATIVES” (SYNGENTA CROP PROTECTION LLC, priority 2010, published 2013)

Key:
[1] = system: Phaeosphaeria nodorum (Septoria nodorum); assay: Phaeosphaeria nodorum (Septoria nodorum) / wheat / leaf disc preventative (glume blotch); format: in vivo; conditions: Parastagonospora nodorum, foliar, wheat leaf segments cv Kanzler, inoculated 2 days after application, assessed 5-7 days after application
Procedure: Phaeosphaeria nodorum (Septoria nodorum)/Wheat/Leaf Disc Preventative (Glume Blotch): Wheat leaf segments cv Kanzler were placed on agar in a 24-well plate and sprayed with formulated test compound diluted in water at an application rate of 200 ppm. The leaf disks are inoculated with a spore suspension of the fungus 2 days after application. The inoculated test leaf disks are incubated at 20° C. and 75% relative humidity under a light regime of 12/12 h (light/dark) in a climate cabinet and the activity of a compound is assessed as percent disease control compared to untreated when an appropriate level of disease damage appears in untreated check leaf disks (5-7 days after application). […]-2.508; 5.561; 2.561; E/E-2.208; P.57; 2.513; 2.559; 2.558; 2.557; 2.556; 2.555; 2.374; 2.544; 2.541; 2.539; 2.537; 2.536; 2.535; 2.533; 2.530; 2.526; 2.519; 2.510; 2.516; 2.514; E/E-5.167; E/E-3.002; 2.512

[2] = system: Blumeria graminis f. sp. tritici (Erysiphe graminis f. sp. tritici); assay: Blumeria graminis f. sp. tritici / wheat / leaf disc preventative (powdery mildew on wheat); format: in vivo; conditions: foliar, wheat leaf segments cv. Kanzler, inoculated 1 day after application, assessed 6-8 days after application
Procedure: Blumeria graminis f. sp. tritici (Erysiphe graminis f. sp. tritici)/Wheat/Leaf Disc Preventative (Powdery Mildew on Wheat):
Wheat leaf segments cv. Kanzler were placed on agar in a 24-well plate and sprayed with the formulated test compound diluted in water at an application rate of 200 ppm. The leaf disks were inoculated by shaking powdery mildew infected plants above the test plates 1 day after application. The inoculated leaf disks were incubated at 20° C. and 60% relative humidity under a light regime of 24 h darkness followed by 12 h/12 h (dark/light) in a climate chamber and the activity of a compound was assessed as percent disease control compared to untreated when an appropriate level of disease damage appears on untreated check leaf segments (6-8 days after application). The following compounds gave at least 80% control of Blumeria graminis: E/E-2.168, E/E-2.474, E/E-2.002; 5.561; 2.561; E/E-2.208; 2.513; 2.559; 2.557; 2.556; 2.555; 2.374; 2.552; 2.537; 2.533; 2.530; 2.528; 2.526; 2.519; 2.510; 2.516; 2.514; E/E-5.167; E/E-3.002; 2.512; 2.511

[3] = system: Mycosphaerella graminicola (Septoria tritici); assay: Mycosphaerella graminicola (Septoria tritici) / liquid culture (Septoria blotch); format: cell-based; conditions: Zymoseptoria tritici; at ≦200 ppm, liquid culture PDB, inhibition of growth photometrically 4-5 days after application; read-out: control of Mycosphaerella graminicola
[4] = system: Monographella nivalis (Microdochium nivale); assay: Monographella nivalis (Microdochium nivale) / liquid culture (foot rot cereals); format: cell-based; conditions: at ≦200 ppm, liquid culture PDB, inhibition of growth photometrically 4-5 days after application, read-out: control of Monographella nivalis
Procedure: Monographella nivalis (Microdochium nivale)/Liquid Culture (Foot Rot Cereals): Conidia of the fungus from cryogenic storage were directly mixed into nutrient broth (PDB potato dextrose broth). After placing a DMSO solution of test compound into a 96-well microtiter plate, the nutrient broth containing the fungal spores was added. The test plates were incubated at 24° C. and the inhibition of growth was determined photometrically 4-5 days after application. […].57; 2.513; 2.559; 2.558; 2.556; 2.555; 2.374; 2.553; 2.551 (fraction B); 2.551 (fraction A); 2.548; 2.544; 2.542; 2.541; 2.539; 2.536; 2.535; 2.533; 2.530; 2.528; 2.526; 2.525 (fraction B); 2.525 (fraction A); 2.524; 2.519; 2.518; 2.516; 2.514; E/E-5.167; 2.512; 2.514

[5] = system: Mycosphaerella arachidis (Cercospora arachidicola); assay: Mycosphaerella arachidis (Cercospora arachidicola) / liquid culture (early leaf spot); format: cell-based; conditions: at ≦200 ppm, liquid culture PDB, inhibition of growth photometrically 4-5 days after application, read-out: control of Mycosphaerella arachidis
Procedure: Mycosphaerella arachidis (Cercospora arachidicola)/Liquid Culture (Early Leaf Spot): Conidia of the fungus from cryogenic storage were directly mixed into nutrient broth (PDB potato dextrose broth). After placing a DMSO solution of test compound into a 96-well microtiter plate, the nutrient broth containing the fungal spores was added. The test plates are incubated at 24° C. and the inhibition of growth was determined photometrically 4-5 days after application. […]-2.509; 5.561; 2.561; P.57; 2.513; 2.559; 2.558; 2.557; 2.556; 2.555; 2.374; 2.553; 2.552; 2.551 (fraction B); 2.551 (fraction A); 2.544; 2.541; 2.539; 2.537; 2.536; 2.533; 2.532; 2.531; 2.530; 2.528; 2.526; 2.525 (fraction B); 2.525 (fraction A); 2.524; 2.520; 2.519; 2.510; 2.518; 2.517; 2.516; 2.514; […].002; 2.512; 2.511; 2.514

Glomerella lagenarium = Glomerella lagenarium (Colletotrichum lagenarium) / liquid culture (anthracnose); format: cell-based; conditions: Colletotrichum orbiculare; at ≦200 ppm, liquid culture PDB, inhibition of growth photometrically 3-4 days after application; read-out: control of Glomerella lagenarium
Procedure: Glomerella lagenarium (Colletotfichum lagenarium)/Liquid Culture (Anthracnose): Conidia of the fungus from cryogenic storage were directly mixed into nutrient broth (PDB potato dextrose broth). After placing a DMSO solution of test compound into a 96-well microtiter, the nutrient broth containing the fungal spores was added. The test plates were incubated at 24° C. and the inhibition of growth is measured photometrically 3-4 days after application. […]-2.509; 5.561; 2.561; E/E-2.208; P.57; 2.513; 2.559; 2.556; 2.555; 2.374; 2.552; 2.548; 2.544; 2.541; 2.540; 2.539; 2.537; 2.536; 2.533; 2.531; 2.530; 2.528; 2.526; 2.519; 2.510; 2.516; 2.514; E/E-5.167; E/E-3.002; 2.512; 2.514; Z/E-2.474

[6] = system: Thanatephorus cucumeris (Rhizoctonia solani); assay: Thanatephorus cucumeris (Rhizoctonia solani) / liquid culture (foot rot, damping-off); format: cell-based; conditions: at ≦200 ppm, liquid culture PDB, inhibition of growth photometrically 3-4 days after application, read-out: control of Thanatephorus cucumeris
Procedure: Thanatephorus cucumeris (Rhizoctonia solani)/Liquid Culture (Foot Rot, Damping-Off Mycelia fragments of a newly grown liquid culture of the fungus are directly mixed into nutrient broth (PDB potato dextrose broth). After placing a DMSO solution of the test compounds into a 96-well microtiter, the nutrient broth containing the fungal material was added. The test plates were incubated at 24° C. and the inhibition of growth was determined photometrically 3-4 days after application. […]-2.508 5.561; 2.561; P.57; 2.513; 2.559; 2.558; 2.553; 2.533; 2.530; 2.526; 2.519; 2.517; 2.516; 2.514; 2.512; 2.514

Gaeumannomyces graminis = Gaeumannomyces graminis / liquid culture (take-all of cereals); format: cell-based; conditions: at ≦200 ppm, liquid culture PDB, inhibition of growth photometrically 4-5 days after application, read-out: control of Gaeumannomyces graminis
Procedure: Gaeumannomyces graminis/Liquid Culture (Take-All of Cereals): Mycelial fragments of the fungus from cryogenic storage were directly mixed into nutrient broth (PDB potato dextrose broth). After placing a DMSO solution of test compound into a 96-well microtiter plate, the nutrient broth containing the fungal spores is added. The test plates were incubated at 24° C. and the inhibition of growth was determined photometrically 4-5 days after application. […]-2.509; 5.561; 2.561; P.57; 2.513; 2.559; 2.558; 2.557; 2.556; 2.555; 2.374; 2.553; 2.552; 2.551 (fraction B); 2.551 (fraction A); 2.539; 2.533; 2.528; 2.526; 2.525 (fraction B); 2.525 (fraction A); 2.524; 2.523; 2.521; 2.520; 2.519; 2.510; 2.518; 2.516; 2.514; E/E-5.167; E/E-3.002; 2.512; E/E-2.508

Pyrenophora teres = Pyrenophora teres / barley / leaf disc preventative (net blotch); format: in vivo; conditions: foliar, barley leaf segments cv Hasso, inoculated two days after application, assessed 5-7 days after application
Procedure: Pyrenophora teres/Barley/Leaf Disc Preventative (Net Blotch): Barley leaf segments cv Hasso are placed on agar in a 24-well plate and sprayed with formulated test compound diluted in water at an application rate of 200 ppm. The leaf segments are inoculated with a spore suspension of the fungus two days after application of the test solution. The inoculated leaf segments are incubated at 20° C. and 65% relative humidity under a light regime of 12/12 h (light/dark) in a climate cabinet and the activity of a compound is assessed as disease control compared to untreated when an appropriate level of disease damage appears in untreated check leaf segments (5-7 days after application). […]-2.507; 5.561; 2.561; E/E-2.208; P.57; 2.513; 2.559; 2.558; 2.556; 2.555; 2.374; 2.552; 2.544; 2.537; 2.533; 2.530; 2.528; 2.519; 2.510; 2.516; 2.514; E/E-5.167; E/E-3.002; 2.512

CCOC(=O)c1ccc(C)c(/C(C)=N/OCC(C)(C)CO/N=C2\CCCc3ccc(C)nc32)n1 [Compound 2.526]
≥ 80%: pest or weed control at 200 ppm [1] | pest or weed control at 200 ppm [2] | inhibition of growth at up to 200 µg/mL [3] | inhibition of growth at up to 200 µg/mL [4] | inhibition of growth at up to 200 µg/mL [5] | inhibition of growth at up to 200 µg/mL (Glomerella lagenarium) | inhibition of growth at up to 200 µg/mL [6] | inhibition of growth at up to 200 µg/mL (Gaeumannomyces graminis)

Cc1ccc2c(n1)/C(=N/OCC(C)(C)CO/N=C/c1ccc(OCc3ccccc3)cn1)CCC2 [Compound 2.553]
≥ 80%: inhibition of growth at up to 200 µg/mL [3] | inhibition of growth at up to 200 µg/mL [4] | inhibition of growth at up to 200 µg/mL [5] | inhibition of growth at up to 200 µg/mL [6] | inhibition of growth at up to 200 µg/mL (Gaeumannomyces graminis)

C/C(=N\OCC(C)(C)CO/N=C1\CCCc2ccc(C#CCO)nc21)c1cc(C)cc(C)n1 [Compound 2.558]
≥ 80%: pest or weed control at 200 ppm [1] | pest or weed control at 200 ppm (Pyrenophora teres) | inhibition of growth at up to 200 µg/mL [3] | inhibition of growth at up to 200 µg/mL [4] | inhibition of growth at up to 200 µg/mL [5] | inhibition of growth at up to 200 µg/mL [6] | inhibition of growth at up to 200 µg/mL (Gaeumannomyces graminis)
